From patent US20240182531A1, “KV1.3 Blockers” (priority 2021, published 2024) come the findings set out here.

pIC50: −log10 of the molar value. Where a SMILES comes first, the peptide text is derived from it. Bridges are numbered along the chain shown (N, C = ends). [ ]: non-standard residue; d: D form. Nle = CCCC[C@H](N)C(=O)O Bounds are passed on as bounds.

One experiment has as its target T1, human Kv1.6 (Homo sapiens, UniProt P17658).
T1 construct: expressed in transfected cells; host or cells: CHO
Briefly: cell-based. As to conditions: ratio of patch clamp IC50 values. In general terms: Patch clamp records ionic current or voltage across a cell membrane.

For a further experiment, the target named is T2, human Kv1.1 (Homo sapiens, UniProt Q09470).
T2 construct: expressed in transfected cells; host or cells: CHO
T2 sequence (Q09470 whole entry): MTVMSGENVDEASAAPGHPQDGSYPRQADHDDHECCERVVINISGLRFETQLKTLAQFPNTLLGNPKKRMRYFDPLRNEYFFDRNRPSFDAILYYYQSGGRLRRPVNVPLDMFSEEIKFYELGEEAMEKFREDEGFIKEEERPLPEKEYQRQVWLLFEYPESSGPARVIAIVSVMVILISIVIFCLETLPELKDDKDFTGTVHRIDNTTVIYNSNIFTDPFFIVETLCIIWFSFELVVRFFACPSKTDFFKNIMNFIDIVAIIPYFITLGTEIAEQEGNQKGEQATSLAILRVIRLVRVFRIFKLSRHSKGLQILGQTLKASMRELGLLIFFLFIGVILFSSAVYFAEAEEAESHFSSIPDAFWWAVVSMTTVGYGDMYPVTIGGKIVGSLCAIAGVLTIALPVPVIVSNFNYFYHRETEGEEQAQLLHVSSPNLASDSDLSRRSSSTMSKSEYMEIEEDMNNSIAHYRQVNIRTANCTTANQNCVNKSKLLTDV
Briefly: cell-based. As to conditions: ratio of patch clamp IC50 values.

Another experiment addresses T3, human Kv1.2 (Homo sapiens, UniProt P16389).
T3 construct: expressed in transfected cells; host or cells: CHO
Briefly: cell-based. The note with it: ratio of patch clamp IC50 values.

A further experiment has as its target Rat whole blood (Rattus norvegicus, UniProt P15384). The class given is cell-based. As to conditions: IL-17A release, thapsigargin, 24 Hr, at least 2 replicates.

T3 sequence (P16389 whole entry): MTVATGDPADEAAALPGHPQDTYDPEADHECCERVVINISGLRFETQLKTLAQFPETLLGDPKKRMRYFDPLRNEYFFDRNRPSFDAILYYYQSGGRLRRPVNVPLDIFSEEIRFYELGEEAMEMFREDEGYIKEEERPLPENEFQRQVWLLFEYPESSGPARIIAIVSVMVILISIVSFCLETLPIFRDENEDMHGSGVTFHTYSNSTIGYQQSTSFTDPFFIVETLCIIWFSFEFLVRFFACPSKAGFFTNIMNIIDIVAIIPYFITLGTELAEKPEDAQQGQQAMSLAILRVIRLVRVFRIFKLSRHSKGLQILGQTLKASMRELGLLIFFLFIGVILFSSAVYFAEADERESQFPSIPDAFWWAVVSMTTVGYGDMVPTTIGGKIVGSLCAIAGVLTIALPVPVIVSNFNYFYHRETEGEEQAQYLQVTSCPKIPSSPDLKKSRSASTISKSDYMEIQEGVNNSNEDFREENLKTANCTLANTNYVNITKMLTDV
T1 sequence (P17658 whole entry): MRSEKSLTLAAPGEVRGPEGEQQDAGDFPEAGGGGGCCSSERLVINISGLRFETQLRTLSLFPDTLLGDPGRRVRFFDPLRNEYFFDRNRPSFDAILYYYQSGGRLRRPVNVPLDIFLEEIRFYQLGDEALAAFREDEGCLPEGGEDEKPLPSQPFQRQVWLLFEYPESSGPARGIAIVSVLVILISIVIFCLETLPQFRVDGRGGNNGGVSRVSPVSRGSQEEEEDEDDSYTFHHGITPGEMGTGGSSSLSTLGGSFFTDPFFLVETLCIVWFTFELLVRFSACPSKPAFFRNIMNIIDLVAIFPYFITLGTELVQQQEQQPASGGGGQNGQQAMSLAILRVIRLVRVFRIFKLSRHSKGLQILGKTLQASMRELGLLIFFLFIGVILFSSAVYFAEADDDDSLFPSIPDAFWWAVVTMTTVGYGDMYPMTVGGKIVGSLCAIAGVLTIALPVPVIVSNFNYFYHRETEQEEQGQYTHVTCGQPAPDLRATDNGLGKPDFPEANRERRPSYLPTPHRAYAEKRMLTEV
Rat whole blood, sequence (P15384 whole entry): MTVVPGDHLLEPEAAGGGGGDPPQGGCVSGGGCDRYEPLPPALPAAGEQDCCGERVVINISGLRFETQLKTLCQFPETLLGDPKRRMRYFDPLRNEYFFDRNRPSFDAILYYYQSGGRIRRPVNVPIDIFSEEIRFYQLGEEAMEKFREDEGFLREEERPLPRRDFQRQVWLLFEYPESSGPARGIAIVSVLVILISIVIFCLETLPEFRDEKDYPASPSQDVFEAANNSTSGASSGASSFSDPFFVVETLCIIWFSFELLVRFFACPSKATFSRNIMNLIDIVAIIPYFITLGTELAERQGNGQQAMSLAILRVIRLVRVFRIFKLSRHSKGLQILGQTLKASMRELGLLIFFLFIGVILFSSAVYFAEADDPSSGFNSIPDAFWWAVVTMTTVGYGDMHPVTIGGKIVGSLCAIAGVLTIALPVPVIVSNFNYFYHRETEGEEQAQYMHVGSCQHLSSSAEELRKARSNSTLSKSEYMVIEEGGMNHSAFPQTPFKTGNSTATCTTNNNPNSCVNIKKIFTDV

For orientation: pIC50 means the negative decadic logarithm of the IC50, by convention in mol/L. A low value points to a high IC50. `CCCC[C@@H]1NC(=O)[C@@H]2CSSC[C@H](NC(=O)[C@H](CCCNC(=N)N)NC(=O)[C@H](CC(C)C)NC(C)=O)C(=O)N[C@@H](CO)C(=O)N[C@@H](C)C(=O)N[C@@H](CO)C(=O)N[C@@H](C(C)C)C(=O)N[C@@H](CCC(=O)O)C(=O)N[C@H]3CSSC[C@H](NC(=O)[C@H](CCCCN)NC(=O)[C@H](CCCCN)NC(=O)[C@H](CC(N)=O)NC1=O)C(=O)N[C@@H](CCCCN)C(=O)N[C@H](C(=O)N[C@@H](Cc1ccc(O)cc1)C(=O)N1CCC[C@H]1C(=O)N[C@@H](CCCNC(=N)N)C(N)=O)CSSC[C@H](NC(=O)[C@H](CCCCN)NC(=O)[C@H](CCC(N)=O)NC(=O)[C@H](CCCCN)NC3=O)C(=O)N[C@@H](CC(C)C)C(=O)N[C@@H](CCCCN)C(=O)N[C@@H](C)C(=O)N[C@@H]([C@@H](C)CC)C(=O)NCC(=O)N[C@@H](CO)C(=O)N[C@@H]([C@@H](C)CC)C(=O)N[C@@H](Cc1ccccc1)C(=O)NCC(=O)N[C@@H](CCCCN)C(=O)N2` [compound 102] (Ac-LRCSASVECKQKCLKAIGSIFGKC[Nle]NKKCKCYPR-NH2; disulfide 3-24, 9-29, 13-31): the “Selectivity ratio Kv1.6/Kv1.3” value at human Kv1.6 stood at 7096. Moreover, on human Kv1.1, the “Selectivity ratio Kv1.1/Kv1.3” value is recorded as greater than 8700. Besides, on human Kv1.2, the “Selectivity ratio Kv1.2/Kv1.3” value amounted to 352. Besides, the pIC50 at Rat whole blood was 9.43.
For `CCCC[C@@H]1NC(=O)[C@@H]2CSSC[C@H](NC(=O)[C@H](CCCNC(=N)N)NC(=O)[C@H](CCCC)NC(=O)[C@H](CC(=O)O)NC(=O)[C@H](CCCC)NC(=O)[C@@H](N)CC(N)=O)C(=O)N[C@@H](CO)C(=O)N[C@@H](C)C(=O)N[C@@H](CO)C(=O)N[C@@H](C(C)C)C(=O)N[C@@H](CCC(=O)O)C(=O)N[C@H]3CSSC[C@H](NC(=O)[C@H](CCCCN)NC(=O)[C@H](CCCCN)NC(=O)[C@H](CC(N)=O)NC1=O)C(=O)N[C@@H](CCCCN)C(=O)N[C@H](C(=O)N[C@@H](Cc1ccc(O)cc1)C(=O)N1CCC[C@H]1C(=O)N[C@@H](CCCNC(=N)N)C(N)=O)CSSC[C@H](NC(=O)[C@H](CCCCN)NC(=O)[C@H](CCCCN)NC(=O)[C@H](CCCCN)NC3=O)C(=O)N[C@@H](CC(C)C)C(=O)N[C@@H](CCCCN)C(=O)N[C@@H](C)C(=O)N[C@@H]([C@@H](C)CC)C(=O)NCC(=O)N[C@@H](CO)C(=O)N[C@@H]([C@@H](C)CC)C(=O)N[C@@H](Cc1ccccc1)C(=O)NCC(=O)N[C@@H](CCCCN)C(=O)N2` [compound 49] (H-N[Nle]D[Nle]RCSASVECKKKCLKAIGSIFGKC[Nle]NKKCKCYPR-NH2; disulfide 6-27, 12-32, 16-34), the “Selectivity ratio Kv1.6/Kv1.3” value on human Kv1.6 was greater than 4000. Moreover, the “Selectivity ratio Kv1.1/Kv1.3” value at human Kv1.1 is reported as greater than 4000. Also, the “Selectivity ratio Kv1.2/Kv1.3” value on human Kv1.2 is listed as 343. This compound had a negative logarithm of the IC50 (pIC50) against Rat whole blood of 8.85.
`CCCC[C@@H]1NC(=O)[C@@H]2CSSC[C@H](NC(=O)[C@H](CCCNC(=N)N)NC(=O)[C@H](CCCC)NC(=O)[C@H](CC(=O)O)NC(=O)[C@@H](N)CCCC)C(=O)N[C@@H](CO)C(=O)N[C@@H](C)C(=O)N[C@@H](CO)C(=O)N[C@@H](C(C)C)C(=O)N[C@@H](CCC(=O)O)C(=O)N[C@H]3CSSC[C@H](NC(=O)[C@H](CCCCN)NC(=O)[C@H](CCCCN)NC(=O)[C@H](CC(N)=O)NC1=O)C(=O)N[C@@H](CCCCN)C(=O)N[C@H](C(=O)N[C@@H](Cc1ccc(O)cc1)C(=O)N1CCC[C@H]1C(=O)N[C@@H](CCCNC(=N)N)C(=O)O)CSSC[C@H](NC(=O)[C@H](CCCCN)NC(=O)[C@H](CCC(N)=O)NC(=O)[C@H](CCCCN)NC3=O)C(=O)N[C@@H](CC(C)C)C(=O)N[C@@H](CCCCN)C(=O)N[C@@H](C)C(=O)N[C@@H]([C@@H](C)CC)C(=O)NCC(=O)N[C@@H](CO)C(=O)N[C@@H]([C@@H](C)CC)C(=O)N[C@@H](Cc1ccccc1)C(=O)NCC(=O)N[C@@H](CCCCN)C(=O)N2` [compound 90] (H-[Nle]D[Nle]RCSASVECKQKCLKAIGSIFGKC[Nle]NKKCKCYPR-OH; disulfide 5-26, 11-31, 15-33): at human Kv1.6, the “Selectivity ratio Kv1.6/Kv1.3” value is greater than 17800. Besides, the “Selectivity ratio Kv1.1/Kv1.3” value at human Kv1.1 was greater than 17800. Also, on human Kv1.2, the “Selectivity ratio Kv1.2/Kv1.3” value turned out to be 11034. In addition, the pIC50 against Rat whole blood is 9.26.
In the case of `CCCC[C@H](NC(=O)[C@H](CC(=O)O)NC(=O)[C@H](CCCC)NC(=O)[C@@H](N)CO)C(=O)N[C@@H](CCCNC(=N)N)C(=O)N[C@H]1CSSC[C@@H]2NC(=O)[C@H](CCCCN)NC(=O)CNC(=O)[C@H](Cc3ccccc3)NC(=O)[C@H]([C@@H](C)CC)NC(=O)[C@H](CO)NC(=O)CNC(=O)[C@H]([C@@H](C)CC)NC(=O)[C@H](C)NC(=O)[C@H](CCCCN)NC(=O)[C@H](CC(C)C)NC(=O)[C@@H]3CSSC[C@@H](C(=O)N[C@@H](Cc4ccc(O)cc4)C(=O)N4CCC[C@H]4C(=O)N[C@@H](CCCNC(=N)N)C(N)=O)NC(=O)[C@H](CCCCN)NC(=O)[C@H](CSSC[C@H](NC(=O)[C@H](CCC(=O)O)NC(=O)[C@H](C(C)C)NC(=O)[C@H](CO)NC(=O)[C@H](C)NC(=O)[C@H](CO)NC1=O)C(=O)NCC(=O)N[C@@H](CCC(N)=O)C(=O)N[C@@H](CCCCN)C(=O)N3)NC(=O)[C@H](CCCCN)NC(=O)[C@H](CCCCN)NC(=O)[C@H](CC(N)=O)NC(=O)[C@H](CCSC)NC2=O` [compound 71] (H-S[Nle]D[Nle]RCSASVECGQKCLKAIGSIFGKCMNKKCKCYPR-NH2; disulfide 6-27, 12-32, 16-34), on human Kv1.6, the “Selectivity ratio Kv1.6/Kv1.3” value is given as greater than 27700. The “Selectivity ratio Kv1.1/Kv1.3” value on human Kv1.1 is on record as greater than 27700. Further, the “Selectivity ratio Kv1.2/Kv1.3” value on human Kv1.2 is listed as 3438. Besides, the negative-log IC50 (pIC50) at Rat whole blood was 9.52.
For the compound `CCCC[C@@H]1NC(=O)[C@@H]2CSSC[C@H](NC(=O)[C@H](CCCNC(=N)N)NC(=O)[C@H](CCCC)NC(=O)[C@H](CC(=O)O)NC(=O)[C@H](CCCC)NC(=O)[C@@H](N)CC(N)=O)C(=O)N[C@@H](CO)C(=O)N[C@@H](C)C(=O)N[C@@H](CO)C(=O)N[C@@H](C(C)C)C(=O)N[C@@H](CCC(=O)O)C(=O)N[C@H]3CSSC[C@H](NC(=O)[C@H](CCCCN)NC(=O)[C@H](CCCCN)NC(=O)[C@H](CC(N)=O)NC1=O)C(=O)N[C@@H](CCCCN)C(=O)N[C@H](C(=O)N[C@@H](Cc1ccc(O)cc1)C(=O)N1CCC[C@H]1C(=O)N[C@@H](CCCNC(=N)N)C(N)=O)CSSC[C@H](NC(=O)[C@H](CCCCN)NC(=O)[C@H](CCC(N)=O)NC(=O)[C@H](CCCCN)NC3=O)C(=O)N[C@@H](CCCCN)C(=O)N[C@@H](C)C(=O)N[C@@H]([C@@H](C)CC)C(=O)NCC(=O)N[C@@H](CO)C(=O)N[C@@H]([C@@H](C)CC)C(=O)N[C@@H](Cc1ccccc1)C(=O)NCC(=O)N[C@@H](CCCCN)C(=O)N2` [compound 53] (H-N[Nle]D[Nle]RCSASVECKQKCKAIGSIFGKC[Nle]NKKCKCYPR-NH2; disulfide 6-26, 12-31, 16-33), at human Kv1.6, the “Selectivity ratio Kv1.6/Kv1.3” value was 707. Also, at human Kv1.1, the “Selectivity ratio Kv1.1/Kv1.3” value was greater than 2200. The “Selectivity ratio Kv1.2/Kv1.3” value at human Kv1.2 was 123. In addition, on Rat whole blood, the pIC50 was 9.00.
With `CC[C@H](C)[C@@H]1NC(=O)[C@H](C)NC(=O)[C@H](CCCCN)NC(=O)[C@H](CC(C)C)NC(=O)[C@@H]2CSSC[C@@H](C(=O)N[C@@H](Cc3ccc(O)cc3)C(=O)N3CCC[C@H]3C(=O)N[C@@H](CCCNC(=N)N)C(N)=O)NC(=O)[C@H](CCCCN)NC(=O)[C@@H]3CSSC[C@H](NC(=O)[C@H](CCC(=O)O)NC(=O)[C@H](CCCNC(=N)N)NC(=O)[C@H](CO)NC(=O)[C@H](C)NC(=O)[C@H](CO)NC(=O)[C@@H](NC(=O)[C@H](CCCNC(=N)N)NC(=O)[C@H](CCSC)NC(=O)[C@H](CC(=O)O)NC(=O)[C@H](CCSC)NC(=O)[C@@H](N)CC(N)=O)CSSC[C@H](NC(=O)[C@H](CCCCN)NC(=O)CNC(=O)[C@H](Cc4ccccc4)NC(=O)[C@H]([C@@H](C)CC)NC(=O)[C@H](CO)NC(=O)CNC1=O)C(=O)N[C@@H](CCSC)C(=O)N[C@@H](CC(N)=O)C(=O)N[C@@H](CCCCN)C(=O)N[C@@H](CCCCN)C(=O)N3)C(=O)N[C@@H](CCCCN)C(=O)N[C@@H](CCC(N)=O)C(=O)N[C@@H](CCCCN)C(=O)N2` [compound 31] (H-NMDMRCSASRECKQKCLKAIGSIFGKCMNKKCKCYPR-NH2; disulfide 6-27, 12-32, 16-34), at human Kv1.6, the “Selectivity ratio Kv1.6/Kv1.3” value came out at 1778. On human Kv1.1, the “Selectivity ratio Kv1.1/Kv1.3” value is given as greater than 25900. Further, the “Selectivity ratio Kv1.2/Kv1.3” value at human Kv1.2 amounted to 94. This compound had a pIC50 against Rat whole blood of 9.17.
In the case of `CC[C@H](C)[C@@H]1NC(=O)[C@H](C)NC(=O)[C@H](CCCCN)NC(=O)[C@H](CC(C)C)NC(=O)[C@@H]2CSSC[C@@H](C(=O)N[C@@H](Cc3ccc(O)cc3)C(=O)N3CCC[C@H]3C(=O)N[C@@H](CCCNC(=N)N)C(=O)O)NC(=O)[C@H](CCCCN)NC(=O)[C@@H]3CSSC[C@H](NC(=O)[C@H](CCC(=O)O)NC(=O)[C@H](C(C)C)NC(=O)[C@H](CO)NC(=O)[C@H](C)NC(=O)[C@H](CO)NC(=O)[C@@H](N)CSSC[C@H](NC(=O)[C@H](CCCCN)NC(=O)CNC(=O)[C@H](Cc4ccccc4)NC(=O)[C@H]([C@@H](C)CC)NC(=O)[C@H](CO)NC(=O)CNC1=O)C(=O)N[C@@H](CCSC)C(=O)N[C@@H](CC(N)=O)C(=O)N[C@@H](CCCCN)C(=O)N[C@@H](CCCCN)C(=O)N3)C(=O)N[C@@H](CCCCN)C(=O)N[C@@H](CCC(N)=O)C(=O)N[C@@H](CCCCN)C(=O)N2` [compound 106] (H-CSASVECKQKCLKAIGSIFGKCMNKKCKCYPR-OH; disulfide 1-22, 7-27, 11-29), on human Kv1.6, the “Selectivity ratio Kv1.6/Kv1.3” value is on record as greater than 1400. Also, the “Selectivity ratio Kv1.1/Kv1.3” value on human Kv1.1 is recorded as greater than 1400. The “Selectivity ratio Kv1.2/Kv1.3” value on human Kv1.2 is recorded as 878. The compound also gave a negative-log IC50 (pIC50) on Rat whole blood of 8.72.
